Data on six compounds can be found in US20240197596A1, “COMPOUNDS USEFUL AS HAIR DYES” (National University of Singapore, priority 2021, published 2024).

One may read the IC50 as the concentration that inhibits the measured activity by half.

Series [1] deals with THP-1 cells. As to the kind of experiment: h-CLAT assay on THP-1 cells: markers against OECD cut-off, prediction, cell viability. Format: cell-based, human. To be noted: for CD54 and CD86 marker expression against OECD cut-off: 8 doses based on CV75, 24 h. In a few lines:
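THP-1 cells (1×10^6/mL) exposed 24 h to 8 doses spaced 1.2-fold around CV75; DNCB and SLS as controls. CD86/CD54 geometric MFI by flow cytometry with PI viability, expressed as % RFI (not calculated below 50% viability). Sensitizer if CD86 >150% or CD54 >200% RFI in two of three runs.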

Series [2] concerns HaCaT cells. As to the kind of experiment: MTT assay on HaCaT cells. The following applies: Homo sapiens, 72 h. It is filed as cell-based. The protocol:
HaCaT (human, adult, low calcium, high temperature, skin keratinocyte) cell suspension was adjusted to 5×10^3 cells per well and seeded in 96-well plates, then incubated at 37° C. with 5% CO2. After 24 h, 10 mM stock solutions of N1-N13 in autoclaved milli-Q water were prepared and serially diluted concentrations were added to the wells. Each concentration was performed in 6-replicates, and seeded wells with only media and no compound were used as controls while wells with only media were used as blanks. The plate was incubated for 72 h, after which 100 μL of MTT reagent was added and the plate was further incubated for 3 h before adding 100 μL of DMSO. Subsequently, the plate was shaken for 20 min, and then absorbance at 570 nm was determined using a Bio-Tek plate reader.

The test system of series [3] is THP-1 cells. As to the kind of experiment: MTT assay on THP-1 cells (CV75). It is filed as cell-based, human. To be noted: THP-1 cells, 24 h. In a few lines:
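THP-1 cells seeded at 1×10^5 cells/well, grown 24 h at 37 °C/5% CO2, then exposed to a dilution series for 24 h (6 replicates). MTT added for 3 h, formazan dissolved in DMSO, absorbance read at 570 nm; CV75 derived from % viability.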
In general terms: Formazan colour is commonly taken as a measure of viable cells.

Series [4] can be described thus: Hair nuance test. Also on record: key to L* / a* / b*: CIELAB L*, a*, b* coordinates; key to ΔE (total colour difference to natural hair): ΔE = √((L*−L0)²+(a*−a0)²+(b*−b0)²) vs untreated hair. The following applies: for eventual colour of bleached hair, Type A: Type A (Non-oxidative) formulation; for eventual colour of bleached hair, Type B: Type B (Oxidative, H2O2) formulation; for eventual colour of bleached hair, Type C: Type C (Oxidative with coupler resorcinol) formulation. The protocol:
35 g of bleaching powder was mixed with 50 mL of developer then applied onto undyed black hair (wrapped in aluminium foil to enhance the bleaching process) and left on for 45 min. The hair was then rinsed with deionized water and shampoo and left to dry. This process was repeated twice.
Hair dye formulations were prepared from N1-N13 according to methods reported (New Journal of Chemistry. 2019; 43(41):16188-99), and with the compositions stated in Table 11 Bleached hair samples were immersed into the respective formulations for 20 min, then air dried for 20 min. Then they were shampooed twice and treated with conditioner for 5 min.
SkinColorCatch (Delfin Technologies Ltd, Kuopio, Finland) was used to measure CIELAB tristimulus L*, a* and b* values of the dyed hair samples and baseline L0, a0, b0 values from untreated hair. The difference in colour tone (ΔH) and the total colour difference (ΔE) were then derived from the values obtained with the equations below:
ΔH=√{square root over ((a*−a0)^2+(b*−b0)^2)}
ΔE=√{square root over ((L*−L0)^2+(a*−a0)^2+(b*−b0)^2)}

[5] abbreviates: HaCaT cells, MTT, read-out: IC50.
Setting [6] is: Type C (Oxidative with coupler resorcinol).

The structures appear in SMILES notation. “Also recorded” adds a separate entry of the source. Where two headings read alike, the source gives them in different places. Where only a bound is given, the exact number is not on record here.

In the case of `Nc1ccc(N)c(OCCO)c1` [Compound N9, 2-(2,5-diaminophenoxy)ethan-1-ol], the “CD54 and CD86 marker expression against OECD cut-off” value (“CD54 and CD86 marker expression” for short) in series [1] is reported as “failed to induce marker expression above the recommended % RFI cut-off”. Further, the IC50 in series [2] (setting [5]) is 272 µM. Besides, in series [3], the “CV75 (concentration affording 75% cell viability), 1 × CV75” value was 126 µg/mL. In addition, in series [4] (Type A (Non-oxidative)), the “L*” value is 23, the “a*” value is recorded as 8, the “b*” value is 10 and the “ΔE (total colour difference to natural hair)” value worked out at 18.46. The “ΔH (difference in colour tone)” value in series [4] (Type A (Non-oxidative)) amounted to 4.29. Besides, in series [4], the “eventual colour of bleached hair, Type A” value is listed as “brown colour”; the “eventual colour of bleached hair, Type B” value is recorded as “brown colour”; the “eventual colour of bleached hair, Type C” value is “vibrant blue colours and Blue”. In series [4] (Type B (Oxidative)), the “L*” value came out at 32, the “a*” value amounted to 0, the “b*” value worked out at 4 and the “ΔE (total colour difference to natural hair)” value is on record as 23.19. The “ΔH (difference in colour tone)” value in series [4] (Type B (Oxidative)) is listed as 4.81. Further, in series [4] (setting [6]), the “L*” value worked out at 29, the “a*” value is reported as 19, the “b*” value was 19 and the “ΔE (total colour difference to natural hair)” value worked out at 32.93. For the same compound, the “ΔH (difference in colour tone)” value in series [4] (setting [6]) is reported as 5.73.
Turning to `CCOCOc1cc(N)ccc1N` [Compound N3, 2-(ethoxymethoxy)benzene-1,4-diamine], the “marker induction, times lower than DNCB” value in series [1] is 3. Also, in series [2] (setting [5]), the IC50 is 457 µM. The “CV75 (concentration affording 75% cell viability), 1 × CV75” value in series [3] was found to be 115 µg/mL. For the same compound, in series [4] (Type A (Non-oxidative)), the “L*” value is listed as 19, the “a*” value was found to be 5, the “b*” value amounted to 4 and the “ΔE (total colour difference to natural hair)” value is reported as 11.6. The “ΔH (difference in colour tone)” value in series [4] (Type A (Non-oxidative)) stood at 5.8. For the same compound, in series [4], the “eventual colour of bleached hair, Type A” value is listed as “Black”; the “eventual colour of bleached hair, Type B” value is on record as “black colour”; the “eventual colour of bleached hair, Type C” value is “Brownish black”. Moreover, in series [4] (Type B (Oxidative)), the “L*” value came to 9, the “a*” value came out at 0, the “b*” value was −1 and the “ΔH (difference in colour tone)” value is on record as 2.0. In series [4] (setting [6]), the “L*” value was determined as 17, the “a*” value is −1, the “b*” value is 2 and the “ΔE (total colour difference to natural hair)” value is recorded as 8.1. Further, the “ΔH (difference in colour tone)” value in series [4] (setting [6]) is 1.4.
`N#CCOc1cc(N)ccc1N` [Compound N6, 2-(2,5-diaminophenoxy)acetonitrile]: the “marker induction, times lower than DNCB” value in series [1] (human, 24 h) is listed as 3. For the same compound, in series [2] (HaCaT), the half-maximal inhibitory concentration (IC50) was above 1000 µM. The “CV75 (concentration affording 75% cell viability), 1 × CV75” value in series [3] came to 123.7 µg/mL. In series [4] (Type A (Non-oxidative)), the “L*” value was found to be 55.0, the “a*” value is reported as 10.0, the “b*” value stood at 19.0 and the “ΔE (total colour difference to natural hair)” value is 50.3. Besides, the “ΔH (difference in colour tone)” value in series [4] (Type A (Non-oxidative)) stood at 20.5. In addition, in series [4], the “eventual colour of bleached hair, Type A” value was “light colours; also recorded: Rose pink”; the “eventual colour of bleached hair, Type B” value is recorded as “Dark brown”; the “eventual colour of bleached hair, Type C” value is on record as “Brownish black”. Further, in series [4] (Type B (Oxidative)), the “L*” value came out at 15, the “a*” value came out at 4, the “b*” value was 5 and the “ΔE (total colour difference to natural hair)” value is listed as 8.2. The “ΔH (difference in colour tone)” value in series [4] (Type B (Oxidative)) came to 5.6. Moreover, in series [4] (setting [6]), the “L*” value is 13, the “a*” value was found to be 5, the “b*” value turned out to be 4 and the “ΔE (total colour difference to natural hair)” value is 7.1. The “ΔH (difference in colour tone)” value in series [4] (setting [6]) is given as 5.8.
Take `COCOc1cc(N)ccc1N` [Compound N2, 2-(methoxymethoxy)benzene-1,4-diamine]: the “marker induction, times lower than DNCB” value in series [1] is reported as 3. The IC50 in series [2] (setting [5]) was found to be 297 µM. In series [3], the “CV75 (concentration affording 75% cell viability), 1 × CV75” value was found to be 72.4 µg/mL. Further, in series [4] (Type A (Non-oxidative)), the “L*” value is recorded as 11, the “a*” value was determined as 1, the “b*” value is listed as −2 and the “ΔE (total colour difference to natural hair)” value was 3.7. Moreover, the “ΔH (difference in colour tone)” value in series [4] (Type A (Non-oxidative)) amounted to 3.16. For the same compound, in series [4], the “eventual colour of bleached hair, Type A” value is recorded as “Walnut brown” and the “eventual colour of bleached hair, Type C” value is recorded as “Black”. In series [4] (Type B (Oxidative)), the “L*” value is 9, the “a*” value was 0, the “b*” value is on record as −1 and the “ΔE (total colour difference to natural hair)” value amounted to 2.0. Besides, the “ΔH (difference in colour tone)” value in series [4] (Type B (Oxidative)) was 2.0. Besides, in series [4] (setting [6]), the “L*” value was 21, the “a*” value worked out at 17, the “b*” value was found to be 6 and the “ΔE (total colour difference to natural hair)” value was 21.4. Moreover, in series [4] (setting [6]), the “ΔH (difference in colour tone)” value is listed as 17.7.
`Nc1ccc(N)c(OCC2CO2)c1` (stereo not drawn) [Compound N4, 2-(oxiran-2-ylmethoxy)benzene-1,4-diamine]: the “CD54 and CD86 marker expression” value in series [1] is listed as “did not express the markers at any tested dose level”. Also, in series [2] (HaCaT), 578 µM corresponded to half-maximal inhibition (IC50). For the same compound, in series [3], the “CV75 (concentration affording 75% cell viability), 1 × CV75” value came out at 62.3 µg/mL. In series [4] (Type A (Non-oxidative)), the “L*” value is reported as 49, the “a*” value turned out to be 5, the “b*” value was determined as 29 and the “ΔE (total colour difference to natural hair)” value was found to be 49.1. The “ΔH (difference in colour tone)” value in series [4] (Type A (Non-oxidative)) was 28.4. In series [4] (Type B (Oxidative)), the “L*” value came out at 40, the “a*” value stood at 6, the “b*” value is 16 and the “ΔE (total colour difference to natural hair)” value is 35.0. The “ΔH (difference in colour tone)” value in series [4] (Type B (Oxidative)) turned out to be 16.2. Moreover, in series [4], the “eventual colour of bleached hair, Type B” value is given as “Coffee brown” and the “eventual colour of bleached hair, Type C” value is given as “vibrant blue colours; also recorded: Admiral blue”. Further, in series [4] (setting [6]), the “L*” value is given as 22, the “a*” value was determined as 1, the “b*” value is listed as −13 and the “ΔE (total colour difference to natural hair)” value is 19.1. In addition, the “ΔH (difference in colour tone)” value in series [4] (setting [6]) is 14.0.
As for `COCCOCCOc1cc(N)ccc1N` [Compound N5, 2-[2-(2-methoxyethoxy)ethoxy]benzene-1,4-diamine], the “CD54 and CD86 marker expression” value in series [1] is on record as “failed to induce marker expression above the recommended % RFI cut-off”. In series [2] (setting [5]), the IC50 turned out to be 43.3 µM. For the same compound, the “CV75 (concentration affording 75% cell viability), 1 × CV75” value in series [3] was determined as 68.3 µg/mL. In addition, in series [4] (Type A (Non-oxidative)), the “L*” value was 18, the “a*” value turned out to be 4, the “b*” value is recorded as −1 and the “ΔE (total colour difference to natural hair)” value is reported as 10.0. For the same compound, the “ΔH (difference in colour tone)” value in series [4] (Type A (Non-oxidative)) came out at 4.5. Further, in series [4], the “eventual colour of bleached hair, Type A” value is on record as “dark brown colour shade; also recorded: Dark cinnamon brown”; the “eventual colour of bleached hair, Type B” value is “Almond brown”; the “eventual colour of bleached hair, Type C” value was “vibrant blue colours; also recorded: Indigo”. Also, in series [4] (Type B (Oxidative)), the “L*” value came to 26, the “a*” value is reported as 3.7, the “b*” value is given as 10.3 and the “ΔE (total colour difference to natural hair)” value is on record as 19.7. The “ΔH (difference in colour tone)” value in series [4] (Type B (Oxidative)) worked out at 10.0. Further, in series [4] (setting [6]), the “L*” value is reported as 16, the “a*” value turned out to be 0, the “b*” value is −6.7 and the “ΔE (total colour difference to natural hair)” value stood at 10.4. The “ΔH (difference in colour tone)” value in series [4] (setting [6]) amounted to 7.7.
